Tests used:
Format in all cases: cell-based
[1] = target: Baculoviral IAP repeat-containing protein 2/Epidermal growth factor receptor (Homo sapiens, UniProt P00533+Q13490); assay: Protac activity at cIAP1/EGFR in human A431 cells assessed as EGFR degradation by Western blot analysis; conditions: a-431
[2] = target: von Hippel-Lindau disease tumor suppressor/Epidermal growth factor receptor (Homo sapiens, UniProt P00533+P40337); assay: Protac activity at VHL/EGFR in human A431 cells assessed as EGFR degradation by Western blot analysis; conditions: a-431
[3] = tested on: von Hippel-Lindau disease tumor suppressor/Epidermal growth factor receptor (Homo sapiens), P00533+P40337 [L858R,T790M]; assay: (§1) Protac activity at VHL/EGFR L858R/T790M mutant in human NCI-H1975 cells assessed as EGFR degradation by Western blot analysis
[4] = target: von Hippel-Lindau disease tumor suppressor/Epidermal growth factor receptor (Homo sapiens, UniProt P00533+P40337, T790M/L858R); assay: as §1
[5] = target: E3 ubiquitin-protein ligase Mdm2/Epidermal growth factor receptor (Homo sapiens, UniProt Q00987+P00533); assay: Protac activity at MDM2/EGFR in human A431 cells assessed as EGFR degradation by Western blot analysis; conditions: a-431
[6] = tested on: E3 ubiquitin-protein ligase Mdm2/Epidermal growth factor receptor (Homo sapiens), Q00987+P00533 [T790M,L858M]; assay: (§2) Protac activity at MDM2/EGFR L858R/T790M mutant in human NCI-H1975 cells assessed as EGFR degradation by Western blot analysis
[7] = target: E3 ubiquitin-protein ligase Mdm2/Epidermal growth factor receptor (Homo sapiens, UniProt Q00987+P00533, T790M/L858M); assay: as §2

C=CC(=O)Nc1cccc(-n2c(=O)cc(C)c3cnc(Nc4ccc(N5CCN(C(=O)CCCCCCCCCCCNC(=O)[C@H](CC(C)C)NC(=O)[C@@H](O)[C@H](N)Cc6ccccc6)CC5)cc4OC)nc32)c1
DC50 [1]: > 2000 nM

C=CC(=O)Nc1cccc(-n2c(=O)cc(C)c3cnc(Nc4ccc(N5CCN(C(=O)CCCCCCCCCCC(=O)N[C@H](C(=O)N6C[C@H](O)C[C@H]6C(=O)NCc6ccc(-c7scnc7C)cc6)C(C)(C)C)CC5)cc4OC)nc32)c1
DC50 [2]: > 2000 nM | Activity [3]: Dose-dependent effect

C=CC(=O)Nc1cccc(-n2c(=O)cc(C)c3cnc(Nc4ccc(N5CCN(C(=O)CCCCCCC(=O)N[C@H](C(=O)N6C[C@H](O)C[C@H]6C(=O)NCc6ccc(-c7scnc7C)cc6)C(C)(C)C)CC5)cc4OC)nc32)c1
DC50 [2]: > 2000 nM | DC50 [4]: 235 nM

C=CC(=O)Nc1cccc(-n2c(=O)cc(C)c3cnc(Nc4ccc(N5CCN(CCCCCCCCCCCC(=O)N[C@H](C(=O)N6C[C@H](O)C[C@H]6C(=O)NCc6ccc(-c7scnc7C)cc6)C(C)(C)C)CC5)cc4OC)nc32)c1
DC50 [2]: 50.3 nM | DC50 [4]: > 2000 nM

C=CC(=O)Nc1cccc(-n2c(=O)cc(C)c3cnc(Nc4ccc(N5CCN(CCCCCCCCCC(=O)N[C@H](C(=O)N6C[C@H](O)C[C@H]6C(=O)NCc6ccc(-c7scnc7C)cc6)C(C)(C)C)CC5)cc4OC)nc32)c1
DC50 [2]: > 2000 nM | DC50 [4]: 132 nM

C=CC(=O)Nc1cccc(-n2c(=O)cc(C)c3cnc(Nc4ccc(N5CCN(C(=O)CCCCCCCCCCCNC(=O)c6ccc(NC(=O)[C@@H]7N[C@@H](CC(C)(C)C)[C@](C#N)(c8ccc(Cl)cc8F)[C@H]7c7cccc(Cl)c7F)c(OC)c6)CC5)cc4OC)nc32)c1
DC50 [5]: > 2000 nM | Activity [6]: Dose-dependent effect | DC50 [7]: 264 nM

C=CC(=O)Nc1cccc(-n2c(=O)cc(C)c3cnc(Nc4ccc(N5CCN(C(=O)CCCCC(=O)N[C@H](C(=O)N6C[C@H](O)C[C@H]6C(=O)NCc6ccc(-c7scnc7C)cc6)C(C)(C)C)CC5)cc4OC)nc32)c1
DC50 [2]: > 2000 nM

C=CC(=O)Nc1cccc(-n2c(=O)cc(C)c3cnc(Nc4ccc(N5CCN(CCCCCCCC(=O)N[C@H](C(=O)N6C[C@H](O)C[C@H]6C(=O)NCc6ccc(-c7scnc7C)cc6)C(C)(C)C)CC5)cc4OC)nc32)c1
DC50 [2]: > 2000 nM | DC50 [4]: 466 nM
